From publication PMC10350919 (Journal of Medicinal Chemistry, 2023)

What was measured:
M. tuberculosis H37Ra = format: cell-based, Mycobacterium tuberculosis
[1] = test system: M. bovis BCG Pasteur ATCC 35734; format: cell-based
E. faecium ATCC 700221 = assay: Neutropenic thigh infection mouse model with VanA E. faecium; format: in vivo; conditions: compound 17 4 doses at 100 mg/kg i.p., linezolid 4 doses at 50 mg/kg i.p.

complestatin
MIC, M. tuberculosis H37Ra (M. tuberculosis H37Ra): >64 µg/mL | MIC, M. bovis BCG Pasteur ATCC 35734 [1]: 64 µg/mL

CC(=O)NC[C@H]1CN(c2ccc(N3CCOCC3)c(F)c2)C(=O)O1 [linezolid]
weight loss compared to untreated control mice (E. faecium ATCC 700221): reduced weight loss | survival (endpoint: 15% of starting weight lost) (E. faecium ATCC 700221; neutropenic mice, Kaplan–Meier, *P < 0.05 Gehan–Breslow–Wilcoxon test): significant survival benefit
